From the kinase profiling compilation of Christmann-Franck et al. (2016)

What was measured:
Experiment in all cases: KINOMEscan competition binding
Settings in all cases: compound 1.0 µM
STK4 (human) = STK4 (human) (UniProt Q13043)
MAP4K5 (human) = MAP4K5 (human) (UniProt Q9Y4K4)
[1] = system: RET (human), P07949 [V804L]
CDK5 (human) = CDK5 (human) (UniProt Q00535)
FLT1 (human) = FLT1 (human) (UniProt P17948)
[2] = system: ABL1 (human), P00519 [E255K]
ANKK1 (human) = ANKK1 (human) (UniProt Q8NFD2)
FRK (human) = FRK (human) (UniProt P42685)
MYLK3 (human) = MYLK3 (human) (UniProt Q32MK0)
ACVR1 (human) = ACVR1 (human) (UniProt Q04771)
HUNK (human) = HUNK (human) (UniProt P57058)
[3] = system: ABL1 (human), P00519 [Q252H]
MAPK8 (human) = MAPK8 (human) (UniProt P45983)
[4] = system: RET (human), P07949 [V804M]
PRKCD (human) = PRKCD (human) (UniProt Q05655)
IKBKE (human) = IKBKE (human) (UniProt Q14164)
FLT3 (human) = FLT3 (human) (UniProt P36888)
LCK (human) = LCK (human) (UniProt P06239)
CDK18 (human) = CDK18 (human) (UniProt Q07002)
DAPK3 (human) = DAPK3 (human) (UniProt O43293)
MAPK11 (human) = MAPK11 (human) (UniProt Q15759)
MINK1 (human) = MINK1 (human) (UniProt Q8N4C8)
AURKC (human) = AURKC (human) (UniProt Q9UQB9)
STK32B (human) = STK32B (human) (UniProt Q9NY57)
TNK2 (human) = TNK2 (human) (UniProt Q07912)
INSR (human) = INSR (human) (UniProt P06213)
CLK2 (human) = CLK2 (human) (UniProt P49760)
EPHB6 (human) = EPHB6 (human) (UniProt O15197)
MAPK6 (human) = MAPK6 (human) (UniProt Q16659)
PHKG2 (human) = PHKG2 (human) (UniProt P15735)
RIPK2 (human) = RIPK2 (human) (UniProt O43353)
TEK (human) = TEK (human) (UniProt Q02763)
PRKAA2 (human) = PRKAA2 (human) (UniProt P54646)
[5] = system: FLT3 (human), P36888 [D835H]
ABL1 (human) = ABL1 (human) (UniProt P00519)
[6] = system: ABL1 (human), P00519 [M351T]
CDC42BPG (human) = CDC42BPG (human) (UniProt Q6DT37)
TAOK3 (human) = TAOK3 (human) (UniProt Q9H2K8)
PIP4K2B (human) = PIP4K2B (human) (UniProt P78356)
STK39 (human) = STK39 (human) (UniProt Q9UEW8)

Sequence of RET (human), P07949 [V804L] (P07949 whole entry V804L, looked up): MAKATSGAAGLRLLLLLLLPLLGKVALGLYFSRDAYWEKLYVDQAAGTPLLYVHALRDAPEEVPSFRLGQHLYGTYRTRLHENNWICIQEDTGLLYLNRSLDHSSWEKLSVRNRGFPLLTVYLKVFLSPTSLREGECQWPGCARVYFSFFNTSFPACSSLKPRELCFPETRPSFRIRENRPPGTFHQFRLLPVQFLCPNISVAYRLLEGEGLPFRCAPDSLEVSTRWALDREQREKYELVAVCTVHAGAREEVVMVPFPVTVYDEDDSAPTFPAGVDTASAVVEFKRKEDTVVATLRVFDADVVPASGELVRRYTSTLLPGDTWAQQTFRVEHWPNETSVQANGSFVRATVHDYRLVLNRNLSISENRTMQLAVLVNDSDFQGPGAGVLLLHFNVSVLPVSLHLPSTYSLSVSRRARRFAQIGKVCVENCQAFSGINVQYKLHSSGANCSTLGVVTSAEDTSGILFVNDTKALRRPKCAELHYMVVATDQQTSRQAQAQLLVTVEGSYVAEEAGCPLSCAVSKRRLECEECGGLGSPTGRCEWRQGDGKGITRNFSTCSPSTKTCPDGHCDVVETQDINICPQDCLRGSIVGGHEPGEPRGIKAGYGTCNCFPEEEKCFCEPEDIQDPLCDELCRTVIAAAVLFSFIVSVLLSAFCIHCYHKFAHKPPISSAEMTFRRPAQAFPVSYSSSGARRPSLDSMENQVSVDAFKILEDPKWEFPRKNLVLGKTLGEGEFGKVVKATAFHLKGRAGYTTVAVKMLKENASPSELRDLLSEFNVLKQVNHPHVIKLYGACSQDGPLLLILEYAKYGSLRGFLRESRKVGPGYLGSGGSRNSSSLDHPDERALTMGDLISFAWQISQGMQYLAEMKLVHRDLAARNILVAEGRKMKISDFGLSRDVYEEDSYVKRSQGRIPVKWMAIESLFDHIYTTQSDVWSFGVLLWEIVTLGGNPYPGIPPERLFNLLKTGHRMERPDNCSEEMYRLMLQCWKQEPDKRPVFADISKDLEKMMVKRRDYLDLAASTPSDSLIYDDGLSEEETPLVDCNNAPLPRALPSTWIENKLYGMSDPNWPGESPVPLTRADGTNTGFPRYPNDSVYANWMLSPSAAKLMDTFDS
Sequence of MAPK11 (human) (Q15759 whole entry, looked up): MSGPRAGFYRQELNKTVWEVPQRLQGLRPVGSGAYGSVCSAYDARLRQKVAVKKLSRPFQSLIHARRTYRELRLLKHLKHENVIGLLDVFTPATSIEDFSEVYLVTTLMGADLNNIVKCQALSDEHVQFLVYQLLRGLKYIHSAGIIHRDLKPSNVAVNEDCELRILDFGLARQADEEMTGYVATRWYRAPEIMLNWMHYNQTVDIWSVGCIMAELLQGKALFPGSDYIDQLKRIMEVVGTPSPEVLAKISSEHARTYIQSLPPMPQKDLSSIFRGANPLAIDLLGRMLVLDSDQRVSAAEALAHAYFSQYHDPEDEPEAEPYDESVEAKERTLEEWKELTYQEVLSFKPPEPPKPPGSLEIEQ
Sequence of MAPK8 (human) (P45983 whole entry, looked up): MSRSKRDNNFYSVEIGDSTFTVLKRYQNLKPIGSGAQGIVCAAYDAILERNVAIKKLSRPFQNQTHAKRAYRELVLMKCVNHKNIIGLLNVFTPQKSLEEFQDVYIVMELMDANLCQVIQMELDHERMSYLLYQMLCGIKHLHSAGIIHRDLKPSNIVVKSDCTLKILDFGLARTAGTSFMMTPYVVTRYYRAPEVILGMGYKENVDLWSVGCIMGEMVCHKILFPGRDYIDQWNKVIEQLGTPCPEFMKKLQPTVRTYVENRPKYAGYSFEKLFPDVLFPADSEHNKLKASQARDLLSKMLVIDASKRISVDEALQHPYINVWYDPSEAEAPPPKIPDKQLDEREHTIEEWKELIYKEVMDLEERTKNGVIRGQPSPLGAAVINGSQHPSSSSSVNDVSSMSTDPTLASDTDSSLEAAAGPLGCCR
Sequence of PRKAA2 (human) (P54646 whole entry, looked up): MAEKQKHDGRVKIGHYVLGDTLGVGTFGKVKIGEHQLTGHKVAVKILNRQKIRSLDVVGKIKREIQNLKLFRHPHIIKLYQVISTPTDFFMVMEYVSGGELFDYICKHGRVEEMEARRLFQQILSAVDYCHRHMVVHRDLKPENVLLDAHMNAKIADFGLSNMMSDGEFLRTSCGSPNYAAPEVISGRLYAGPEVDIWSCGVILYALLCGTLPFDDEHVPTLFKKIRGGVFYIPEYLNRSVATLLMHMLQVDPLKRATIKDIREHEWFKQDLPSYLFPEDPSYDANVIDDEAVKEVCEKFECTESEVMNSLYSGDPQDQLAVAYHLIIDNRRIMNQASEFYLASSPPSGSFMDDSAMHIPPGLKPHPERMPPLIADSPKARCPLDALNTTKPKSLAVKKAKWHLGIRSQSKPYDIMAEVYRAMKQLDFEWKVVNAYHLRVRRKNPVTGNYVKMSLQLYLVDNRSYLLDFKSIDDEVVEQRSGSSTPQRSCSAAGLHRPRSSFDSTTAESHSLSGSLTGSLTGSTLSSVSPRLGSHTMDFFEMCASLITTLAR
Sequence of MAPK6 (human) (Q16659 whole entry, looked up): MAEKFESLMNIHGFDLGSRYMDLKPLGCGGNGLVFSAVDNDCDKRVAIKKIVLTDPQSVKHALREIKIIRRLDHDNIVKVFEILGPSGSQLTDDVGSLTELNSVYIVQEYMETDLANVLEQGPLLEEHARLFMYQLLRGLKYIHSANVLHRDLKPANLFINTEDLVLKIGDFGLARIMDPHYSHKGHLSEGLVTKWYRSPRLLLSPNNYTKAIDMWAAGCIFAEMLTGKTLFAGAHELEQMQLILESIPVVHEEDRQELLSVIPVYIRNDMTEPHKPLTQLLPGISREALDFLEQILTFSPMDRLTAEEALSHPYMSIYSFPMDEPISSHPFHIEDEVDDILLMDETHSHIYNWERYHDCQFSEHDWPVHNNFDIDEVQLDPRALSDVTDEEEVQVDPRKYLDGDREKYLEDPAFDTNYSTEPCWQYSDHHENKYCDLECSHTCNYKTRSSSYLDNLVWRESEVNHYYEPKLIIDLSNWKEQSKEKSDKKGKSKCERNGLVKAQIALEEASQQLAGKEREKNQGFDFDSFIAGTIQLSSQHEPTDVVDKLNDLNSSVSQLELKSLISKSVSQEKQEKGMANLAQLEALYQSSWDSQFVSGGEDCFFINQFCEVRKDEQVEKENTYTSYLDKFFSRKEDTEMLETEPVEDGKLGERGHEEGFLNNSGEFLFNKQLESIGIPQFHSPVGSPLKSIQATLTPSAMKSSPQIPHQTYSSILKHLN
Sequence of STK32B (human) (Q9NY57 whole entry, looked up): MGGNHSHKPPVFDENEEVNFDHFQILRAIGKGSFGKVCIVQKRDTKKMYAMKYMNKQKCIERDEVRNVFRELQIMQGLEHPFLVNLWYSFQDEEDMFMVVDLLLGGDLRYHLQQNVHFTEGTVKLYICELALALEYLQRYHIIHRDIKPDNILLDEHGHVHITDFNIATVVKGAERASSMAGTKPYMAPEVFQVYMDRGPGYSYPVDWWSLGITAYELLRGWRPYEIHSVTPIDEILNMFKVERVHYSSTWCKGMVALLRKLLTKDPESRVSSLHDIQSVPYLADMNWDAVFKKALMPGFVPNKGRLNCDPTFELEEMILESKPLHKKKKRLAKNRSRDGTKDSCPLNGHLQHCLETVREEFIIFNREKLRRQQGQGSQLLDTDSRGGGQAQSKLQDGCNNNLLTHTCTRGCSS
Sequence of FRK (human) (P42685 whole entry, looked up): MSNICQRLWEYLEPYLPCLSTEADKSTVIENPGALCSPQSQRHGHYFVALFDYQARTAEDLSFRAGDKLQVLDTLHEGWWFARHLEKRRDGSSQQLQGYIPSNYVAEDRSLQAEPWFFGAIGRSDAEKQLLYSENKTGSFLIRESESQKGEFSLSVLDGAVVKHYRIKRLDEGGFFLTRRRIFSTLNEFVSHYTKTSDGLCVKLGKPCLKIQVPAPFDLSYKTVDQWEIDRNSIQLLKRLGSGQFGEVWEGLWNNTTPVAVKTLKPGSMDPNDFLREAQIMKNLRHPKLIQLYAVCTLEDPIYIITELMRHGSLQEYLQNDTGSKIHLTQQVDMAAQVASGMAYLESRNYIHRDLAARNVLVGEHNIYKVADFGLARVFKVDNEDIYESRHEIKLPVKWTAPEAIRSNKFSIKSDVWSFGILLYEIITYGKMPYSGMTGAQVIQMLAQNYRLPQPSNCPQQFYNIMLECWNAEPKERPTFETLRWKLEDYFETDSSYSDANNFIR
Sequence of AURKC (human) (Q9UQB9 whole entry, looked up): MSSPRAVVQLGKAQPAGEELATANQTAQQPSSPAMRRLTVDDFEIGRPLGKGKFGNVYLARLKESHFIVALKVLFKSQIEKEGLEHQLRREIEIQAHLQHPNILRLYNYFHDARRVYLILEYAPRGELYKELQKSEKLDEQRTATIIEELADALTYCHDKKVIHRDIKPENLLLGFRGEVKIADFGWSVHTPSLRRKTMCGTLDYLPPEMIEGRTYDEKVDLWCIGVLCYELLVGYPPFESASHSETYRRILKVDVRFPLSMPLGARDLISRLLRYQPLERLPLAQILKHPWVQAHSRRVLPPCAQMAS
Sequence of LCK (human) (P06239 whole entry, looked up): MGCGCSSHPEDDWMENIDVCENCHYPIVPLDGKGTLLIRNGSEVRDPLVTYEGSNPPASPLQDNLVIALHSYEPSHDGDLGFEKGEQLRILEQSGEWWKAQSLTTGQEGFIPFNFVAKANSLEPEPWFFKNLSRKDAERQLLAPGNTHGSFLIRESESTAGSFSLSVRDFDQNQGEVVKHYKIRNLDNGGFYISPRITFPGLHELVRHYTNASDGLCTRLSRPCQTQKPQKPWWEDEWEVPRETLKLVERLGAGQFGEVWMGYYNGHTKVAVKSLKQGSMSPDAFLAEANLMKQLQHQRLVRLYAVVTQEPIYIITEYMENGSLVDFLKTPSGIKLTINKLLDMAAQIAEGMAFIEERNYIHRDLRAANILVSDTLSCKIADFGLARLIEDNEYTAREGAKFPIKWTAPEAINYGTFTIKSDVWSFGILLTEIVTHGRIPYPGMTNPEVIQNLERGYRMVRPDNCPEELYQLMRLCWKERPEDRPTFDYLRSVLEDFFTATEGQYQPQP
Sequence of RET (human), P07949 [V804M] (P07949 whole entry V804M, looked up): as the sequence (P07949 whole entry V804L, looked up) above, with L804M counted along it

Compound: Nc1cc(C(F)(F)F)c(-c2cc(N3CCOCC3)nc(N3CCOCC3)n2)cn1
- inhibition of binding (STK4 (human)): 0%
- inhibition of binding (MAP4K5 (human)): 0%
- inhibition of binding [1]: 12%
- inhibition of binding (CDK5 (human)): 0%
- inhibition of binding (FLT1 (human)): 0%
- inhibition of binding [2]: 0%
- inhibition of binding (ANKK1 (human)): 0%
- inhibition of binding (FRK (human)): 0%
- inhibition of binding (MYLK3 (human)): 0%
- inhibition of binding (ACVR1 (human)): 0%
- inhibition of binding (HUNK (human)): 18%
- inhibition of binding [3]: 0%
- inhibition of binding (MAPK8 (human)): 0%
- inhibition of binding [4]: 14%
- inhibition of binding (PRKCD (human)): 4%
- inhibition of binding (IKBKE (human)): 0%
- inhibition of binding (FLT3 (human)): 8%
- inhibition of binding (LCK (human)): 0%
- inhibition of binding (CDK18 (human)): 34%
- inhibition of binding (DAPK3 (human)): 10%
- inhibition of binding (MAPK11 (human)): 0%
- inhibition of binding (MINK1 (human)): 0%
- inhibition of binding (AURKC (human)): 0%
- inhibition of binding (STK32B (human)): 11%
- inhibition of binding (TNK2 (human)): 0%
- inhibition of binding (INSR (human)): 30%
- inhibition of binding (CLK2 (human)): 0%
- inhibition of binding (EPHB6 (human)): 3%
- inhibition of binding (MAPK6 (human)): 0%
- inhibition of binding (PHKG2 (human)): 11%
- inhibition of binding (RIPK2 (human)): 0%
- inhibition of binding (TEK (human)): 0%
- inhibition of binding (PRKAA2 (human)): 0%
- inhibition of binding [5]: 2%
- inhibition of binding (ABL1 (human)): 0%
- inhibition of binding [6]: 0%
- inhibition of binding (CDC42BPG (human)): 0%
- inhibition of binding (TAOK3 (human)): 10%
- inhibition of binding (PIP4K2B (human)): 0%
- inhibition of binding (STK39 (human)): 2%
